Reference: US20220009967A1, “Isolation and Semi-Synthesis of Rufomycin Analogs” (THE BOARD OF TRUSTEES OF THE UNIVERSITY OF ILLINOIS, priority 2020, published 2022)
Values after ≈ are worked out from the molar mass of the structure shown.

Columns and labels:
Mycobacterial ClpC1 FL = biological target: T1, Mycobacterial ClpC1 FL (Mycobacterium tuberculosis, UniProt P9WPC9); test: SPR binding affinity to ClpC1 full-length protein (FL); conditions: ClpC1 full-length protein; KD=kd/ka; Table 1; read-out: SPR KD FL
T1 construct: N-terminal domain (NTD) and the full-length protein (FL) by surface plasmon resonance (SPR)
T1 sequence (P9WPC9 whole entry, the tested form may be a part): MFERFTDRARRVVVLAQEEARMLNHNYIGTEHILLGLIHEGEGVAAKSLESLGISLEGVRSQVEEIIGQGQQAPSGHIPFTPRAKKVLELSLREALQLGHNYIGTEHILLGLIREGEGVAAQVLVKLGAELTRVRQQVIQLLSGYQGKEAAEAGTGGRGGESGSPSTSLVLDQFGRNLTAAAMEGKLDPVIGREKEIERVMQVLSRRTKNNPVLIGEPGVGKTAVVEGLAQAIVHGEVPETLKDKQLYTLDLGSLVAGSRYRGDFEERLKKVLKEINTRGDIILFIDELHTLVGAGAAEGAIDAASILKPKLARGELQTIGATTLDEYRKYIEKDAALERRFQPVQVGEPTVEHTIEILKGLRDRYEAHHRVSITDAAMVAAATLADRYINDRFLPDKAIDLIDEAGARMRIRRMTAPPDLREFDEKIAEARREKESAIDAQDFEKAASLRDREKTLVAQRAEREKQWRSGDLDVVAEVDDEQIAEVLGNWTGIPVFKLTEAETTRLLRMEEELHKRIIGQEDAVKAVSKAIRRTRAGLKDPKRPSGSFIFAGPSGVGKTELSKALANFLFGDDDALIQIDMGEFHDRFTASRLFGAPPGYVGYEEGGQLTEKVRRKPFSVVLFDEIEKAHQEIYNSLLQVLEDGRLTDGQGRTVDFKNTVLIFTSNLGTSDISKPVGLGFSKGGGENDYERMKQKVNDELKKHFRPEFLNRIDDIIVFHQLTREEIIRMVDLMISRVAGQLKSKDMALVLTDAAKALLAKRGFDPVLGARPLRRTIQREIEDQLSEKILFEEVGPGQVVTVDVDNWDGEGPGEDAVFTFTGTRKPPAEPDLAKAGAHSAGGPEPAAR
Procedure: (§1) Analysis of binding affinity to Mycobacterial ClpC1-NTD and FL by SPR. SPR binding assay was performed using a previously reported method (Choules et al., Antimicrob. Agents Chemother. 2019, 63, e02204-02218; Wolf et al., ACS Infect. Dis. 2019, 5, 829-840). Kinetic rate constants (ka and kd) were determined by fitting the double-reference data globally to the 1:1 Langmuir model embedded in the Biacore T200 evaluation software (v3.0). KD values were then calculated from the two rate constants (KD=kd/ka). Smaller KD values represent tighter binding affinities.

Mycobacterial ClpC1-NTD = biological target: T2, Mycobacterial ClpC1-NTD (Mycobacterium tuberculosis, UniProt P9WPC9); test: SPR binding affinity to ClpC1-NTD; conditions: ClpC1 N-terminal domain; KD=kd/ka; Table 1; read-out: SPR KD NTD
T2 construct: caseinolytic protein C1 (ClpC1) N-terminal domain (NTD)
Procedure: as §1

M. tuberculosis = test: MIC against M. tuberculosis, microplate Alamar Blue assay (MABA); format: cell-based, Mycobacterium tuberculosis; parameters: MIC90: unit not given beside the values; conditions: for MIC90: MABA, Table 3, unit not given
Procedure: MICs against M. tuberculosis. The MIC was defined as the minimum concentration of the compound required to achieve a reduction in fluorescence by 90% relative to the untreated bacterial controls. The anti-TB activity was determined by the microplate Alamar Blue assay (MABA) as previously described (Choules et al., Antimicrob. Agents Chemother. 2019, 63, e02204-02218).

Compound | Kd (Mycobacterial ClpC1 FL) [nM] | Kd (Mycobacterial ClpC1-NTD) [nM] | MIC (M. tuberculosis; Mycobacterium tuberculosis) [µM] | increase in activity compared to rufomycin analogues 1 and 2 (M. tuberculosis; MIC ratio, in words) | MIC (M. tuberculosis; text summary of Table 1, unit not given) | MIC90 (M. tuberculosis)
C/C=C/C[C@@H]1NC(=O)[C@H](CC(C)C)N2C=C(C)C[C@@H](C2=O)N(C)C(=O)[C@H](C)NC(=O)[C@H](Cc2ccc(O)c([N+](=O)[O-])c2)NC(=O)[C@H](CC(C)C)N(C)C(=O)[C@H](Cc2cn(C(C)(C)[C@H](O)CCl)c3ccccc23)NC1=O [Compound 3] | 97.1 | 82.3 | 0.0188 ± 0.004 (≈ 0.0199 µg/mL) | – | – | –
C/C=C/C[C@@H]1NC(=O)[C@H](CC(C)C)N2C(=O)[C@H](CC(C)[C@H]2OC)N(C)C(=O)[C@H](C)NC(=O)[C@H](Cc2ccc(O)c([N+](=O)[O-])c2)NC(=O)[C@H](CC(C)C)N(C)C(=O)[C@H](Cc2cn(C(C)(C)[C@H](O)COC)c3ccccc23)NC1=O (some centres unmarked) [Compound 4] | 79.9 | 88.5 | 0.0064 ± 0.0018 (≈ 0.00697 µg/mL) | – | – | –
C/C=C/C[C@@H]1NC(=O)[C@H](CC(C)C)N2C(=O)[C@H](CC(C)[C@H]2OC)N(C)C(=O)[C@H](C)NC(=O)[C@H](Cc2ccc(O)c([N+](=O)[O-])c2)NC(=O)[C@H](CC(C)C)N(C)C(=O)[C@H](Cc2cn(C(C)(C)[C@H](O)CCl)c3ccccc23)NC1=O (some centres unmarked) [Compound 5] | 163 | 123 | – | – | – | –
C/C=C/C[C@@H]1NC(=O)[C@H](CC(C)C)N2C(=O)[C@H](CC(C)[C@H]2OC)N(C)C(=O)[C@H](C)NC(=O)[C@H](Cc2ccc(O)c([N+](=O)[O-])c2)NC(=O)[C@H](CC(C)C)N(C)C(=O)[C@H](Cc2cn(C(C)(C)[C@H]3CO3)c3ccccc23)NC1=O (some centres unmarked) [Compound 6] | 31.7 | 103 | – | ten-fold increase in activity | 1.9 | –
C/C=C/C[C@@H]1NC(=O)[C@H](CC(C)C)N2C(=O)[C@H](CC(C)[C@H]2O)N(C)C(=O)[C@H](C)NC(=O)[C@H](Cc2ccc(O)c([N+](=O)[O-])c2)NC(=O)[C@H](CC(C)C)N(C)C(=O)[C@H](Cc2cn(C(C)(C)[C@H](O)CCl)c3ccccc23)NC1=O (some centres unmarked) [Compound 7] | 116 | 114 | 0.0464 ± 0.0046 (≈ 0.0501 µg/mL) | – | – | –
C/C=C/C[C@@H]1NC(=O)[C@H](CC(C)C)N2C(=O)[C@H](CC(C)[C@H]2OCC)N(C)C(=O)[C@H](C)NC(=O)[C@H](Cc2ccc(O)c([N+](=O)[O-])c2)NC(=O)[C@H](CC(C)C)N(C)C(=O)[C@H](Cc2cn(C(C)(C)[C@H](O)CCl)c3ccccc23)NC1=O (some centres unmarked) [Compound 8] | 142 | 120 | 0.244 ± 0.0271 (≈ 0.27 µg/mL) | – | – | –
C/C=C/C[C@@H]1NC(=O)[C@H](CC(C)C)N2C(=O)[C@H](CC(C)[C@H]2OCCC)N(C)C(=O)[C@H](C)NC(=O)[C@H](Cc2ccc(O)c([N+](=O)[O-])c2)NC(=O)[C@H](CC(C)C)N(C)C(=O)[C@H](Cc2cn(C(C)(C)[C@H](O)CCl)c3ccccc23)NC1=O (some centres unmarked) [Compound 10] | 143 | 90.7 | 0.75 ± 0.0107 (≈ 0.84 µg/mL) | – | – | –
C/C=C/C[C@@H]1NC(=O)[C@H](CC(C)C)N2C=C(C)C[C@@H](C2=O)N(C)C(=O)[C@H](C)NC(=O)[C@H](Cc2ccc(OC(C)=O)c([N+](=O)[O-])c2)NC(=O)[C@H](CC(C)C)N(C)C(=O)[C@H](Cc2cn(C(C)(C)[C@H](O)CCl)c3ccccc23)NC1=O [Compound 15] | 513 | 317 | 0.0224 (≈ 0.0247 µg/mL) | – | – | –
C/C=C/C[C@@H]1NC(=O)[C@H](CC(C)C)N2C=C(C)C[C@@H](C2=O)N(C)C(=O)[C@H](C)NC(=O)[C@H](Cc2ccc(OC)c([N+](=O)[O-])c2)NC(=O)[C@H](CC(C)C)N(C)C(=O)[C@H](Cc2cn(C(C)(C)[C@H]3CO3)c3ccccc23)NC1=O [Compound 16] | 883 | 580 | 0.0726 (≈ 0.0754 µg/mL) | – | – | –
NNC(=O)c1ccncc1 [INH, isoniazid, reference compound] | – | – | – | – | – | 463
CO[C@H]1/C=C/O[C@@]2(C)Oc3c(C)c(O)c4c(O)c(c(/C=N/N5CCN(C)CC5)c(O)c4c3C2=O)NC(=O)/C(C)=C\C=C\[C@H](C)[C@H](O)[C@@H](C)[C@@H](O)[C@@H](C)[C@H](OC(C)=O)[C@@H]1C [RMP, rifampin, reference compound] | – | – | – | – | – | 28
